# According to ChEMBL document CHEMBL5465560, “Selectivity Literature for EUbOPEN Chemogenomic Library” (2024):
# How the values were obtained:
# [1] = molecular target: T1, cGMP-dependent protein kinase 2 (Homo sapiens) (UniProt Q13237); experiment: Selectivity interaction (KinomeScan (DiscoverX)) EUB0001049a PRKG2; settings: at 1 µM
# T1 sequence (whole entry): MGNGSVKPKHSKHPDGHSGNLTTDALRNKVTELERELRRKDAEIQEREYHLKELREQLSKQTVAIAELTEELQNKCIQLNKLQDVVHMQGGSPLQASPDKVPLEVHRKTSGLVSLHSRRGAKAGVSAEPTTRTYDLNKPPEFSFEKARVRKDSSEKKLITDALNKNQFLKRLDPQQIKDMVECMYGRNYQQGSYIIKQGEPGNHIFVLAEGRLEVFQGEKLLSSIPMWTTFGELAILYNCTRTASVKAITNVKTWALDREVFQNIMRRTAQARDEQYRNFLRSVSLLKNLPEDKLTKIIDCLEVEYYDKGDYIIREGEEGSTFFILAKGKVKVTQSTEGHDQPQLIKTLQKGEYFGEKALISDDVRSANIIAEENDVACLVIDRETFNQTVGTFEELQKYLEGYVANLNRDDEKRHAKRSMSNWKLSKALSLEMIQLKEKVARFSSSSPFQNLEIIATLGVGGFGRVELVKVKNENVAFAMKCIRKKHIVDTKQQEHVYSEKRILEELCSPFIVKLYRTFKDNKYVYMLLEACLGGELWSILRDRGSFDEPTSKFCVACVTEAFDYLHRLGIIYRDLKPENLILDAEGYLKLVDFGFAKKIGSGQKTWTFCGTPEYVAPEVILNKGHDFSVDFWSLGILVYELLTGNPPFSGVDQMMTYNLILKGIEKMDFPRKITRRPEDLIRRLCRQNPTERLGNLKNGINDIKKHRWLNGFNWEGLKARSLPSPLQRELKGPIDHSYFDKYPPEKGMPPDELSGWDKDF
# [2] = molecular target: Vascular endothelial growth factor receptor 2 (Homo sapiens, UniProt P35968); experiment: Selectivity interaction (KinomeScan (DiscoverX)) EUB0001049a KDR; settings: at 1 µM
# [3] = molecular target: Cyclin-dependent kinase 5 (Homo sapiens, UniProt Q00535); experiment: Selectivity interaction (ActivX KiNativ screen (kinase selectivity in THP-1 cell lysates)) EUB0000639a CDK5; assay type: subcellular; settings: lysate, at 0.04 µM
# [4] = molecular target: Serine/threonine-protein kinase WNK1 (Homo sapiens) (UniProt Q9H4A3); experiment: Selectivity interaction (ActivX KiNativ screen (kinase selectivity in THP-1 cell lysates)) EUB0000639a WNK1; assay type: subcellular; settings: lysate, at 0.2 µM
# [5] = molecular target: T2, NUAK family SNF1-like kinase 1 (Homo sapiens) (UniProt O60285); experiment: Selectivity interaction (KinomeScan (DiscoverX)) EUB0000655a NUAK1; settings: at 10 µM
# T2 sequence (whole entry): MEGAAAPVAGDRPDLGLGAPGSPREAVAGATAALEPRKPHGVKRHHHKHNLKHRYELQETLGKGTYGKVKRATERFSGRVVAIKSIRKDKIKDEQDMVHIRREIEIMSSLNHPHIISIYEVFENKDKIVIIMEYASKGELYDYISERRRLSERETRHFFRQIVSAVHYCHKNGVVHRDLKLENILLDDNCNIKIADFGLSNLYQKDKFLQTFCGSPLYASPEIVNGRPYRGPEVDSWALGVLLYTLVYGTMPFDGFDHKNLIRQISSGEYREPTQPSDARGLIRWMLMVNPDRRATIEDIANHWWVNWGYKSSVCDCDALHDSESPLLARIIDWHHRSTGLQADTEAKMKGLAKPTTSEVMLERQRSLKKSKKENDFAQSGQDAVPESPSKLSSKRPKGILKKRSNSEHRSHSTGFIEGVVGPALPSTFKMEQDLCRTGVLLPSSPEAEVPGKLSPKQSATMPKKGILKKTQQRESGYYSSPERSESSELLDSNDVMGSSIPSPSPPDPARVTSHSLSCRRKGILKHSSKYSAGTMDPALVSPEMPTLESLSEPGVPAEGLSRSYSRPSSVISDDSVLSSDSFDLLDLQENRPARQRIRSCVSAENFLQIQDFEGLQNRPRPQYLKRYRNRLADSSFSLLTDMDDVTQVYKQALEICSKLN
# [6] = molecular target: T3, Serine/threonine-protein kinase D3 (Homo sapiens) (UniProt O94806); experiment: Selectivity interaction (KinomeScan (DiscoverX)) EUB0000092b PRKD3; settings: at 10 µM
# T3 sequence (whole entry): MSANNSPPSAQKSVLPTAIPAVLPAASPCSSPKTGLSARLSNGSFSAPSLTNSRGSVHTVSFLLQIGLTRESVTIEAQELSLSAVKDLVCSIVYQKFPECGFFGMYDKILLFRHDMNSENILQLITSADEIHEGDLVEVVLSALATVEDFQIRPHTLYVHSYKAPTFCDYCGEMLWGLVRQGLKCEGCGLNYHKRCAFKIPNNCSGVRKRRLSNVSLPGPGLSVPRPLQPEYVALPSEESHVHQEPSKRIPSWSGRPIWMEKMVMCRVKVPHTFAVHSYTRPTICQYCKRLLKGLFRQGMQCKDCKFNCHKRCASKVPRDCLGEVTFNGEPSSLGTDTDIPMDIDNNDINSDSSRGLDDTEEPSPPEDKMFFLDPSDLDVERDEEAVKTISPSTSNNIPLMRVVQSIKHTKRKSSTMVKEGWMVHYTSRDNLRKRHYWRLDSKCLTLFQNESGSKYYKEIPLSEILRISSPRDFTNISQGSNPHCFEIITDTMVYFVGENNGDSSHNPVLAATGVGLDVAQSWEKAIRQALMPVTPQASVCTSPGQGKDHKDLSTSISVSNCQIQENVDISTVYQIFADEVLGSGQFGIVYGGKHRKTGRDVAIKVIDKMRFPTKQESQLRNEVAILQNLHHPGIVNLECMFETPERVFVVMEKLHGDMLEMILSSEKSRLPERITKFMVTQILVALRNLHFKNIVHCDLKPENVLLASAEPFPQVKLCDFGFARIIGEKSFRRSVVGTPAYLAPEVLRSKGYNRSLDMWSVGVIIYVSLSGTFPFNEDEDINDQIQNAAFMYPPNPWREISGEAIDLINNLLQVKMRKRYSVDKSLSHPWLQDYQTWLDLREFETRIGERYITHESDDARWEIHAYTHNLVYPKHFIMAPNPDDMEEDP
# Sequence of Cyclin-dependent kinase 5 (Q00535 whole entry, looked up): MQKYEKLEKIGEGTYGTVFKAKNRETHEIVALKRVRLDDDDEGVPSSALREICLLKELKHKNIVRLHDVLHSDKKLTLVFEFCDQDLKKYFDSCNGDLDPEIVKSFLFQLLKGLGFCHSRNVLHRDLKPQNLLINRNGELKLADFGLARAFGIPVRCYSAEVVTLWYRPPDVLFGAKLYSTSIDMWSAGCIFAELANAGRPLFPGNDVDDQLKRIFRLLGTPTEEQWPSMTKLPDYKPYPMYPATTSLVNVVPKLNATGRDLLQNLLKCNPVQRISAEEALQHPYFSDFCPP
# Sequence of Vascular endothelial growth factor receptor 2 (P35968 whole entry): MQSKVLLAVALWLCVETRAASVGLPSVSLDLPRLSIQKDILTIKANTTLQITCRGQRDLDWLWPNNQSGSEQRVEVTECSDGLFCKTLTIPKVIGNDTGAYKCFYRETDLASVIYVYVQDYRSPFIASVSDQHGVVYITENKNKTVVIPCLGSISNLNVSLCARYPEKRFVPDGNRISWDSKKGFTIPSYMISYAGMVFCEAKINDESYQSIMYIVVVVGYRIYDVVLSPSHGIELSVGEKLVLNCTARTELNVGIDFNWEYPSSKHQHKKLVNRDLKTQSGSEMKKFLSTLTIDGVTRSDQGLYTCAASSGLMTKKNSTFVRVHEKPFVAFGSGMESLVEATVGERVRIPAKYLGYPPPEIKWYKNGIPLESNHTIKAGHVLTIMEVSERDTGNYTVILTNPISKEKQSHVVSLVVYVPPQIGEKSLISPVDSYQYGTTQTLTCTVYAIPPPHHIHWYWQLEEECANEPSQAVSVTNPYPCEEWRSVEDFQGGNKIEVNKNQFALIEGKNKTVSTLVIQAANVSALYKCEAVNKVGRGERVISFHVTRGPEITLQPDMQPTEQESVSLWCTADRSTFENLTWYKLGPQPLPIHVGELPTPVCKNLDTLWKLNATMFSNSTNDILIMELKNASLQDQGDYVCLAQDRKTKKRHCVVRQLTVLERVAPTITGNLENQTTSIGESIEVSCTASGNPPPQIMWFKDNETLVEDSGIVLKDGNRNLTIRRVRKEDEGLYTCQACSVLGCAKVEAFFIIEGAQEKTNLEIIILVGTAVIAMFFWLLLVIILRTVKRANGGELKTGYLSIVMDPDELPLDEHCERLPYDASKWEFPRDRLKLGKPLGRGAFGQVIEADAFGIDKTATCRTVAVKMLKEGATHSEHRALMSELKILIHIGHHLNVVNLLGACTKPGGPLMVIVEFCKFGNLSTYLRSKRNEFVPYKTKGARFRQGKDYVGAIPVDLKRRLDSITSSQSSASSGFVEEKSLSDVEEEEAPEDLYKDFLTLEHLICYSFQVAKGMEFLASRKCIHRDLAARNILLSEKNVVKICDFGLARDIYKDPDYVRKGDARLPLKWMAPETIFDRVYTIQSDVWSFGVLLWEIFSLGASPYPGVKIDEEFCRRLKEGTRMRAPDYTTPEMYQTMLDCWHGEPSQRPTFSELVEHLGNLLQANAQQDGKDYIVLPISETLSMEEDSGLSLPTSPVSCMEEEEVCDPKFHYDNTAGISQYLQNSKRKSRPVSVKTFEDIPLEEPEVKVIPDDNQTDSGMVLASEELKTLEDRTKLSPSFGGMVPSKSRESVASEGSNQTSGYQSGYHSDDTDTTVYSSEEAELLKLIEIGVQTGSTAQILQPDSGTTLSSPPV
# Sequence of Serine/threonine-protein kinase WNK1 (Homo sapiens) (Q9H4A3 whole entry, looked up): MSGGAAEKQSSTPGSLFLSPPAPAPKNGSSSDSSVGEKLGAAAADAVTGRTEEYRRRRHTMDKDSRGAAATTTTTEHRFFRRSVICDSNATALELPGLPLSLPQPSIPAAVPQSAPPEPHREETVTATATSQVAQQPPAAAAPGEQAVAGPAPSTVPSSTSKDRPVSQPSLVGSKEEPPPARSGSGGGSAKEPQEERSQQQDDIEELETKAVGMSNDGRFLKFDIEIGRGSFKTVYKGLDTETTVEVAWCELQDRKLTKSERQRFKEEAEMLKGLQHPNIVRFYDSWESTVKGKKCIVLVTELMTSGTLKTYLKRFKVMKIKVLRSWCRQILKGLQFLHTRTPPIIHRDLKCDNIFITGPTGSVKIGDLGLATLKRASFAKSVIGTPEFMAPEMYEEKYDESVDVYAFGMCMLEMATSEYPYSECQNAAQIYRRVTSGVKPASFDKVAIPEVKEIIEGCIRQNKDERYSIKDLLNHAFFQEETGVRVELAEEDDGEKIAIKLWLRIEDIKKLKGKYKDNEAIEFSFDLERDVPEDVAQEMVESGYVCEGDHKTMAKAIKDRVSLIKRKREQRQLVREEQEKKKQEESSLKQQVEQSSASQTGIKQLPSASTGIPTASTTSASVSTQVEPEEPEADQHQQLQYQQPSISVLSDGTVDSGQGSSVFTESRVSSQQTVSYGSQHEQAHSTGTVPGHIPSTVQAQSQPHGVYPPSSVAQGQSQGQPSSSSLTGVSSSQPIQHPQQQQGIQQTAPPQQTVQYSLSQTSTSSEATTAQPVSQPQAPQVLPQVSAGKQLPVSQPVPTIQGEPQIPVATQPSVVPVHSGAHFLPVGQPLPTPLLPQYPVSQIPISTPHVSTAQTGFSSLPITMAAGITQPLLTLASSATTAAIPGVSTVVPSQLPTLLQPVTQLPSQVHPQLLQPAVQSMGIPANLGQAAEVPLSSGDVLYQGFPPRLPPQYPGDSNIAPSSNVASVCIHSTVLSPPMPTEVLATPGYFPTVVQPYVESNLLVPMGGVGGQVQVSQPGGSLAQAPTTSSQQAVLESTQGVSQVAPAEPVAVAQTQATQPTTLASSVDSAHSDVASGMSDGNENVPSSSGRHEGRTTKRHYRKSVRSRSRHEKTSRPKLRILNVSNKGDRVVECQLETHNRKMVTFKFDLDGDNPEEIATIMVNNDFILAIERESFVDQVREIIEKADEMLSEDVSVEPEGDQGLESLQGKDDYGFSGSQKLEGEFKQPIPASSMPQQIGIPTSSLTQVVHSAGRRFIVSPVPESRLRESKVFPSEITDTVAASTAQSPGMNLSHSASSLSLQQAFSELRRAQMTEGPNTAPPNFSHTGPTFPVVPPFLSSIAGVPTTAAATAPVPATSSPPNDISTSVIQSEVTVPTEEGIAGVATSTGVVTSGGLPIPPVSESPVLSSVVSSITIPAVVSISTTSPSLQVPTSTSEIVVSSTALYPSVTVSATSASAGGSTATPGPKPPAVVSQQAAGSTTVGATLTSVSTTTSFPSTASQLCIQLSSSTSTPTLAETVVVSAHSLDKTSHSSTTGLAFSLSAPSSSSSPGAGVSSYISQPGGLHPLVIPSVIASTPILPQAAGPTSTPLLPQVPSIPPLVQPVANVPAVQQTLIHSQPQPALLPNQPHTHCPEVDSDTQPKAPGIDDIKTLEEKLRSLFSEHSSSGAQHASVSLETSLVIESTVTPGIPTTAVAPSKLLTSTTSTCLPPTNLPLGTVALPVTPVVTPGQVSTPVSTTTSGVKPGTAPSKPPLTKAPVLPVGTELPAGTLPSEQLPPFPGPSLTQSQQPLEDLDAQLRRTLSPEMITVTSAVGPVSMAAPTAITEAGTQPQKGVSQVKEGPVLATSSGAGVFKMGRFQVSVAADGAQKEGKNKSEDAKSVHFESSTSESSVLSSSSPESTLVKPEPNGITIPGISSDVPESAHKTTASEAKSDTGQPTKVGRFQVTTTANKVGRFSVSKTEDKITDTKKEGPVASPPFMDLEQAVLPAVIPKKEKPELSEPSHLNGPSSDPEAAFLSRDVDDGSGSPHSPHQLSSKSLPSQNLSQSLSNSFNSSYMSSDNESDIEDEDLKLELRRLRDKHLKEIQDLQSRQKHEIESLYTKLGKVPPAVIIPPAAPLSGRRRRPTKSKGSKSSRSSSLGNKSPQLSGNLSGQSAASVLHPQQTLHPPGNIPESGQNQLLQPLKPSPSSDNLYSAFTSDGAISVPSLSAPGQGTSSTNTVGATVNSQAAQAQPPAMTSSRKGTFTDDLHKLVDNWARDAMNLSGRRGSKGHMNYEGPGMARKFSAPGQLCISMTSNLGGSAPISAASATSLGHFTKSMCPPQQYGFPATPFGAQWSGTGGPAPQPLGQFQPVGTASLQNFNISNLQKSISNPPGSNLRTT
structure (smiles),measurement,setting,value
COc1cc(Nc2nc(C)cc(-c3cnn4nc(OC)ccc34)n2)cc(C(F)(F)F)c1,% of control,[1],70%
same,% of control,[2],95%
CC[C@@H]1[C@H](F)C(=O)N[C@@H]1COc1nccc2cc(C(N)=O)c(OC)cc12 [ZIMLOVISERTIB],% of inhibition,[3],8.4%
same,% of inhibition,[4],-12%
CN(C)CCOc1ccc(-c2nc(-c3ccncc3)c(-c3ccc4c(c3)CC/C4=N\O)[nH]2)cc1,% of control,[5],100%
CCC(=O)N1CCN(c2ccc(-n3c(=O)ccc4cnc5ccc(-c6cnc7ccccc7c6)cc5c43)cc2C(F)(F)F)CC1,% of control,[6],100%
